Measurements published in US6486161B1, “Use of rifamycin derivative for treating mastitis in a domestic animal” (priority 2000, dated 2002).
Converted amounts (≈) assume the structure as drawn. Read-outs that look alike come from different tables or passages of the source.

Experiments:
[1] = system: rifampin-resistant S. aureus isolated from diseased animals; format: cell-based, Staphylococcus aureus; settings: range over the 13 rifampin-resistant strains
Experimental: (§1) The antibacterial effect of the rifamycin derivative (1) against rifampin-resistant Staphylococcus aureus bacterial strains was determined. The tested bacterial strains were isolated from a variety of animal diseases as well as laboratory strains.
(§2) All bacteria were maintained on 3 mm glass beads immersed in trypticase soy broth (BBL Microbiology Systems, Cockeysville, Md.) with 10% glycerol and held at −70° C. until revived. Prior to testing, the organisms were subcultured on tryptose blood agar base (Difco, Detroit, Mich.) supplemented with 5% sheep blood for 24 hours at 35° C.
(§3) The compounds were dissolved in 95% ethanol and diluted to 10% ethanol in sterile, distilled water except for the compounds used in the in vivo testing where saline was used to dilute the original ethanol/drug suspension. Further dilutions were conducted in water or saline.
(§4) MICs were determined using the microbroth dilution method. In addition to the test organisms, the following quality control strain also was tested: Staphylococcus aureus ATCC 29213. The results are shown in Table 5, wherein R is the alkyl group R in the rifamycin derivative (1).

[2] = system: rifampin-resistant S. aureus 30871; experiment: microbe, parasite or virus in culture; format: cell-based, Staphylococcus aureus; settings: strain 30871
Experimental: as §1, §2, §3, §4

[3] = system: rifampin-resistant S. aureus 30865; experiment: microbe, parasite or virus in culture; format: cell-based, Staphylococcus aureus; settings: strain 30865
Experimental: as §1, §2, §3, §4

[4] = system: rifampin-resistant S. aureus 30867; experiment: microbe, parasite or virus in culture; format: cell-based, Staphylococcus aureus; settings: strain 30867
Experimental: as §1, §2, §3, §4

[5] = system: rifampin-resistant S. aureus 12637; experiment: microbe, parasite or virus in culture; format: cell-based, Staphylococcus aureus; settings: strain 12637
Experimental: as §1, §2, §3, §4

[6] = system: rifampin-resistant S. aureus 30858; experiment: microbe, parasite or virus in culture; format: cell-based, Staphylococcus aureus; settings: strain 30858
Experimental: as §1, §2, §3, §4

[7] = system: rifampin-resistant S. aureus 30888; experiment: microbe, parasite or virus in culture; format: cell-based, Staphylococcus aureus; settings: strain 30888
Experimental: as §1, §2, §3, §4

[8] = system: rifampin-resistant S. aureus 30862; experiment: microbe, parasite or virus in culture; format: cell-based, Staphylococcus aureus; settings: strain 30862
Experimental: as §1, §2, §3, §4

[9] = system: rifampin-resistant S. aureus 30869; experiment: microbe, parasite or virus in culture; format: cell-based, Staphylococcus aureus; settings: strain 30869
Experimental: as §1, §2, §3, §4

[10] = system: rifampin-resistant S. aureus 31068; experiment: microbe, parasite or virus in culture; format: cell-based, Staphylococcus aureus; settings: strain 31068
Experimental: as §1, §2, §3, §4

[11] = system: rifampin-resistant S. aureus 30863; experiment: microbe, parasite or virus in culture; format: cell-based, Staphylococcus aureus; settings: strain 30863
Experimental: as §1, §2, §3, §4

[12] = system: rifampin-resistant S. aureus 30859; experiment: microbe, parasite or virus in culture; format: cell-based, Staphylococcus aureus; settings: strain 30859
Experimental: as §1, §2, §3, §4

[13] = system: rifampin-resistant S. aureus 30860; experiment: microbe, parasite or virus in culture; format: cell-based, Staphylococcus aureus; settings: strain 30860
Experimental: as §1, §2, §3, §4

[14] = system: rifampin-resistant S. aureus B93-728M; experiment: microbe, parasite or virus in culture; format: cell-based, Staphylococcus aureus; settings: strain B93-728M
Experimental: as §1, §2, §3, §4

[15] = system: Staphylococcus aureus 9203; experiment: MIC against the strain of the intracellular killing assay; format: cell-based
S. aureus 6097 = experiment: Mutation frequency for resistance, strain 6097; format: cell-based, Staphylococcus aureus
Experimental: (§5) The mutation frequency for development of resistance to the rifamycin derivative (1) as compared to rifampin was determined with selected Staphylococcus aureus strains.
(§6) Four S. aureus strains were used: S. aureus 30857, a rifampin-resistant isolate: S. aureus 6097, a strain used in the mouse mastitis test and originally from a case of gangrenous bovine mastitis; S. aureus B83-1, derived from the Newbould 305 strain; and S. aureus ATCC 29213, the in vitro control stain recommended by NCCLS.
as §2, with “S. aureus strains” for “bacteria”, “strains” for “organisms”
(§7) These compounds were dissolved in 95% ethanol, a solution which was then diluted to 10% ethanol with sterile distilled water. Further dilutions were conducted in water.
(§8) The mutation frequency for development of resistance to the compounds tested was determined by the following method. A single colony of each strain was removed from the surface of a blood agar plate with a cotton swab, suspended in 5 ml of Mueller-Hinton broth (BBL), and streaked on the entire surface of five Mueller-Hinton agar plates. The plates were incubated overnight under aerobic conditions at 35° C., growth was removed from the agar using a sterile cotton swab, and the bacteria were suspended in 10 ml physiological saline. This bacterial suspension was the inoculum for the mutation frequency determinations. Standard plate counts were performed on the inoculum by performing serial dilutions and plating a 0.1 ml aliquot on the surface of ten Mueller-Hinton agar plates at each concentration. The plates were incubated for 18-24 hours at 35° C. under aerobic conditions and colony counts performed. Mean bacterial counts were calculated for the inoculum with each strain.
(§9) A 0.1 ml aliquot of the inoculum was then used to inoculate the entire surface of ten plates each containing 1, 10, and 100 μg/ml of the test antimicrobial agents. The plates were incubated for 18-24 hours at 35° C. under aerobic conditions and colony counts performed. Mean bacterial counts were calculated for each antimicrobial concentration and the mutation frequency calculated by dividing the number of colonies which grew on the drug containing media by the inoculum size.

S. aureus ATCC 29213 = experiment: MIC, microbroth dilution, strain ATCC 29213; format: cell-based, Staphylococcus aureus
Experimental: as §6
as §2, with “S. aureus strains” for “bacteria”, “strains” for “organisms”
as §7
MIC (Minimum Inhibitory Concentration) determinations were performed using the microbroth dilution method. (National Committee for Clinical Laboratory Standards, 1990 Approved Standard […]. Methods for dilution antimicrobial susceptibility tests for bacteria that grow aerobically, 3rd edition. National Committee for Clinical Laboratory Standards, Villanova, Pa.) The results are shown in Table 3, wherein R is the alkyl group R in the rifamycin derivative (1).

[16] = system: S. aureus 30857, a rifampin-resistant isolate; format: cell-based, Staphylococcus aureus; settings: strain 30857
Experimental: as §5, §6
as §2, with “S. aureus strains” for “bacteria”, “strains” for “organisms”
as §7, §8, §9

[17] = Staphylococcus aureus, read-out: MIC

Compound: COC1/C=C/OC2(C)Oc3c(C)c(O)c4c(=O)c(c5oc6cc(N7CCN(C)CC7)cc(O)c6nc-5c4c3C2=O)NC(=O)/C(C)=C\C=C\C(C)C(O)C(C)C(O)C(C)C(OC(C)=O)C1C (stereo not shown) [R = methyl]
- MIC Range [1]: 0.06 to 4.0 µg/mL
- MIC [2]: 2.0 µg/mL (≈ 2.22 µM)
- MIC [3]: 0.06 µg/mL (≈ 0.0667 µM)
- MIC [4]: 0.5 µg/mL (≈ 0.556 µM)
- MIC [5]: 0.25 µg/mL (≈ 0.278 µM)
- MIC [6]: 2.0 µg/mL (≈ 2.22 µM)
- MIC [7]: 0.13 µg/mL (≈ 0.145 µM)
- MIC [8]: 2.0 µg/mL (≈ 2.22 µM)
- MIC [9]: 0.25 µg/mL (≈ 0.278 µM)
- MIC [10]: 2.0 µg/mL (≈ 2.22 µM)
- MIC [11]: 0.25 µg/mL (≈ 0.278 µM)
- MIC [12]: 0.25 µg/mL (≈ 0.278 µM)
- MIC [13]: 4.0 µg/mL (≈ 4.45 µM)
- MIC [14]: 0.5 µg/mL (≈ 0.556 µM)
- MIC [15]: ≦0.03 μg/ml
- Mutation frequency (S. aureus 6097; 1 μg/ml): 4.0 × 10^−8
- Mutation frequency (S. aureus 6097; 10 μg/ml): <1.8 × 10^−10
- Mutation frequency (S. aureus 6097; 100 μg/ml): <1.8 × 10^−10
- MIC (S. aureus ATCC 29213): 0.061 ng/mL (≈ 6.79e-05 µM)
- Mutation frequency ([16]; 1 μg/ml): <1.6 × 10^−10
- Mutation frequency ([16]; 10 μg/ml): <1.6 × 10^−10
- Mutation frequency ([16]; 100 μg/ml): <1.6 × 10^−10

Compound: CO[C@H]1/C=C/O[C@@]2(C)Oc3c(C)c(O)c4c(O)c(c(/C=N/N5CCN(C)CC5)c(O)c4c3C2=O)NC(=O)/C(C)=C\C=C\[C@H](C)[C@H](O)[C@@H](C)[C@@H](O)[C@@H](C)[C@H](OC(C)=O)[C@@H]1C [Rifampin, reference compound]
- MIC [2, 17]: > 32 µg/mL
- MIC [3, 17]: 32 µg/mL (≈ 38.9 µM)
- MIC [4, 17]: 32 µg/mL (≈ 38.9 µM)
- MIC [5, 17]: > 32 µg/mL
- MIC [6, 17]: 8 µg/mL (≈ 9.72 µM)
- MIC [7, 17]: > 32 µg/mL
- MIC [8, 17]: > 32 µg/mL
- MIC [9, 17]: 4 µg/mL (≈ 4.86 µM)
- MIC [10, 17]: 4 µg/mL (≈ 4.86 µM)
- MIC [11, 17]: > 32 µg/mL
- MIC [12, 17]: > 32 µg/mL
- MIC [13, 17]: > 32 µg/mL
- MIC [14, 17]: 2 µg/mL (≈ 2.43 µM)
- MIC ([15]; read-out: MIC): ≤ 0.03 µg/mL
- Mutation frequency (S. aureus 6097; 1 μg/ml): 1.2 × 10^−8
- Mutation frequency (S. aureus 6097; 10 μg/ml): 2.0 × 10^−8
- Mutation frequency (S. aureus 6097; 100 μg/ml): 4.9 × 10^−9
- MIC (S. aureus ATCC 29213; Staphylococcus aureus, ATCC29213, read-out: MIC): 1.9 ng/mL (≈ 0.00231 µM)
- Mutation frequency ([16]; 1 μg/ml): >1.0 × 10^−7
- Mutation frequency ([16]; 10 μg/ml): >1.0 × 10^−7
- Mutation frequency ([16]; 100 μg/ml): >1.0 × 10^−7
